Here are results for 16 compounds from patent US11974988B2, “Neuroprotective compositions and methods of using the same” (The Board of Supervisors of Louisiana State Univer …, priority 2018, dated 2024).

Data set [1] deals with activity-regulated Gln/MeAIB transport (SNAT activity) in hippocampal neurons. The data set is described as follows: Activity-regulated (spontaneous, 4-AP- or K+-stimulated) [14C]-MeAIB transport in primary hippocampal neurons. The class given is cell-based, rat. Details: block of transport activity: dose or concentration left out as unconfirmed. The following applies: for relative affinity for PMA-induced K+-activity-stimulated Gln/MeAIB transport activity: PMA 10 min before KCl 60 mM; for inhibition of spontaneous activity-regulated 14C-MeAIB transport, in words: screens, 10 μM, GABA 2 mM; for inhibition at 10 µM / IC50: Rattus norvegicus, Hippocampal neuron; for inhibition at 10 µM: read-out: block / inhibition of transport activity; for potency to inhibit activity-regulated MeAIB transport relative to a comparator, in words: spontaneous and 4-AP stimulated transport.

Another data set concerns SNAT1 or SNAT2. The following applies: cited from earlier work.
The test system of data set [2] is activity-regulated Gln/MeAIB transport (SNAT activity) in hippocampal neurons. The following applies: cited from earlier work; for Km: read-out: Km of the activity-regulated Gln/MeAIB transport system; for block of 14C-MeAIB transport activity: 2 mM.
The subject of the next data set is KCa2 and NaV channels. As to conditions: cited from earlier work.
Data set [3] deals with hippocampal neurons of KA-treated rats. Nature of the data set: KA-induced status epilepticus model, hippocampal neurodegeneration (fluoro-jade B, NeuN). The class given is in vivo, rat. The following applies: for neuroprotection against Glu-induced excitotoxicity in the KA model of TLE: rat, in vivo.
Text: (§1) In Aim 3, we treat male and female rats with the ‘best’ SKA-41 derivatives before and after injection of kainic acid (KA). The KA-induced status epilepticus (SE) model is a well-validated model of temporal lobe epilepsy (TLE), the major form of human epilepsy. The model allows studying the different stages between SE and the development of TLE including SE, the acute and latent stages of epileptogenesis and chronic epilepsy. The excitotoxin KA causes excessive Glu release in the hippocampus and selective destruction of inhibitory SOM interneurons in the hilus region of the dentate gyrus (DG) and loss of pyramidal neurons in the CA3 (esp), and also CA1 regions. We scaled up synthesis of SKA-41, 219, and SKA-378. The identity of the compounds was confirmed by ^1H- and ^13C-NMR and high-resolution mass spectrometry. Compound purity is determined by HPLC and no compounds with less then 98% purity were used. […] Rats were processed for immunohistochemistry 3 days after KA administration. As expected, we find that KA treatment induces significant neural damage (green cells) in the CA3 pyramidal neuron subfield and in neurons in the hilus (FIG. 20 Panel A), which are SOM containing GABAergic interneurons (not shown). Fluoro jade B is a high affinity fluorescent marker used for the localization of neuronal degeneration. […] In studies, we have also administered SKA-378 (30 mg/kg) one hr after the onset of stage IV seizures (SE), followed by another injection at 4 hr post SE and then once each day for 3 days. We find that SKA-378 is also neuroprotective under these conditions.
as §1, with “with” for “with the ‘best’”, “(esp)” for “(esp),”, “were” for “was”, “We” for “As expected, we”, “23” for “20”, “Fluoro-jade” for “Fluoro jade”

In the next data set the target is T1, NaV1.2 (Mus musculus, UniProt B1AWN6).
T1 construct: N1E-115 cells that constitutively express NaV1.2; endogenous in cells; host or cells: N1E-115 mouse neuroblastoma cells
T1 sequence (B1AWN6 whole entry): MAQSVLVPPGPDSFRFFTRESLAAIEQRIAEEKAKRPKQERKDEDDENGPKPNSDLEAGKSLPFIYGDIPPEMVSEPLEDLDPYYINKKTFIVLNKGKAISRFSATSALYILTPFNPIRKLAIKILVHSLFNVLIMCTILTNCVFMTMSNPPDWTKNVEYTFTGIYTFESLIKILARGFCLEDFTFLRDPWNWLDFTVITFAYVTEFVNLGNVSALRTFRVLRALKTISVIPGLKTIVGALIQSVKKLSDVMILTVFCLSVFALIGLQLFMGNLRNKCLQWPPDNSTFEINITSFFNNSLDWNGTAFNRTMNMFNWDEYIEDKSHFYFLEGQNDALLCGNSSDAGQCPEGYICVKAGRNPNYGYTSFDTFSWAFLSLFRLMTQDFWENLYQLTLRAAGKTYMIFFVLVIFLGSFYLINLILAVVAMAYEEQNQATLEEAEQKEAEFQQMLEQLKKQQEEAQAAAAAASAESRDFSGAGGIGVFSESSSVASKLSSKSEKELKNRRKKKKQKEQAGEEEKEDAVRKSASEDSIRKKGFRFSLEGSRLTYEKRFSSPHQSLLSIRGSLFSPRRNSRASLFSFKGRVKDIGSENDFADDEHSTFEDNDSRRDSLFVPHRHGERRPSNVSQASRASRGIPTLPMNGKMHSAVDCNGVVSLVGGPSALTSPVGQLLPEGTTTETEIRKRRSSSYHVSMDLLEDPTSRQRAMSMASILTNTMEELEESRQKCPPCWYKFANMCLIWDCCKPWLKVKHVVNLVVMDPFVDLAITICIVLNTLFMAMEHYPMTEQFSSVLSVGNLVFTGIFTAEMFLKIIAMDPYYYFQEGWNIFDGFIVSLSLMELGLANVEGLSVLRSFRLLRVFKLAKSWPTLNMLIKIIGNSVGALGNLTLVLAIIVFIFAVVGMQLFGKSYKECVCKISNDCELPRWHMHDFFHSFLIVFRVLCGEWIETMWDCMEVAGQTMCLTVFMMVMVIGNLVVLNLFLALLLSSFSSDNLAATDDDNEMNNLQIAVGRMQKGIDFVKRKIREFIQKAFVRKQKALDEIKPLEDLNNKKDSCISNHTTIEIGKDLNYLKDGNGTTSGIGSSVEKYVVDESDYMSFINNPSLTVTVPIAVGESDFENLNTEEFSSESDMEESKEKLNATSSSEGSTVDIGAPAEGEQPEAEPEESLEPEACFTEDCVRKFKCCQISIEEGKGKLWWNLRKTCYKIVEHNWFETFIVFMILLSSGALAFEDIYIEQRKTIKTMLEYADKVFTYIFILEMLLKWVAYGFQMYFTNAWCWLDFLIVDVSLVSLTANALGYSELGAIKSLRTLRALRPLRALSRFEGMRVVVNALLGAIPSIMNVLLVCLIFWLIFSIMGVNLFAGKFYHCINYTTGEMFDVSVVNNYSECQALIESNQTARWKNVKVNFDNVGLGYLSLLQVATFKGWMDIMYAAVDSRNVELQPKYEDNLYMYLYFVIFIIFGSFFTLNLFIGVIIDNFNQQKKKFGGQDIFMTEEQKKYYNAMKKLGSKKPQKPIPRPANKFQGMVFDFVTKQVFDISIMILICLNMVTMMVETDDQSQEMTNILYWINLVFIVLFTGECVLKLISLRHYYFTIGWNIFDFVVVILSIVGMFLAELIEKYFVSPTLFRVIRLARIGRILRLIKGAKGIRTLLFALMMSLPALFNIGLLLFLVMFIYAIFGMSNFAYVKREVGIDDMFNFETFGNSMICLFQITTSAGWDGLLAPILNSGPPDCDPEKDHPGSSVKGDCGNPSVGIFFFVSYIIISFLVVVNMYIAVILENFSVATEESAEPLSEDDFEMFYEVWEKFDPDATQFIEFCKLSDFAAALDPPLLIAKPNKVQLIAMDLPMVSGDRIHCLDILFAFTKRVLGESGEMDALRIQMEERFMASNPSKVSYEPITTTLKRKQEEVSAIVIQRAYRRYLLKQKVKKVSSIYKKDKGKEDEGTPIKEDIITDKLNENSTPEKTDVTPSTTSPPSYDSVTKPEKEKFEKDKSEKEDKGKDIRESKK
Nature of the data set: NaV currents recorded by whole-cell patch clamp from N1E-115 neuroblastoma cells expressing NaV1.2. Type of data set: cell-based. The source says:
Cells were held at −80 mV and current elicited by a 0 mV depolarization stepped from a −120 mV conditioning pulse at 0.1 Hz.
Cells transiently (or stably) expressing voltage-gated Na^+ or K^+ channels will be subjected to electrophysiological recording using the whole-cell patch-clamp technique. We will use HEK-293 cell lines stably expressing hNaV1.1, hNaV1.5, hNaV1/7, hNaV1.4, and hKV2.1. […] All cells will be voltage clamped to a holding potential of −90 mV, otherwise specified if held at −120 mV in the case of NaV1.2 use-dependence recording. Na^+ currents will be elicited by 30-ms pulse to 0 mV from −90 mV applied every 10 s. KV2.1 currents will be elicited by 200-ms voltage steps from −90 to 40 mV applied every 10 s.

Data set [4] can be described thus: Max. solubility (Table 1). Type of data set: physicochemical.
A further data set addresses protein Kinase C. As to conditions: read-out: IC50, inhibition of protein Kinase C; cited from earlier work.
Data set [5] concerns N- and P/Q-type Ca2+ channels. As to conditions: read-out: IC50, block of N- and P/Q-type Ca2+ channels; cited from earlier work.
Data set [6] relates to delayed-rectifier K+ channels and two-pore K+ channels. The following applies: cited from earlier work.
Data set [7] deals with small-conductance Ca2+-activated K+ channels. As to conditions: read-out: EC50, activation of small-conductance Ca2+-activated K+ channels; cited from earlier work.
In a further data set the test system is NaV channels. As to conditions: read-out: IC50s, inhibition of NaV channels; cited from earlier work.
Another data set relates to plasma protein. Nature of the data set: Plasma protein binding. Type of data set: in vitro ADME, rat. The source says: Synthesis of SKA-41, SKA-190, SKA-219 and SKA-220 and will validate plasma protein binding with rat plasma using equilibrium dialysis so that we can validate protein binding.
The mark [8] stands for this setting: 4-AP-stimulated (depolarization) [14C]-MeAIB uptake, DIV16, n in brackets, read-out: SNAT Activity IC50, 4-AP.
[9] abbreviates: spontaneous [14C]-MeAIB uptake, DIV 19, n in brackets, read-out: SNAT Activity IC50, Spont.

In brackets after ≈: the same amount, converted by molar mass. Several values for one entry are separate records, joined by “and”; a condition that tells them apart may be missing. Equal values may be shown once. Entries after “also recorded” stand apart in the source; their conditions may differ. Read-outs that look alike come from different tables or passages of the source. A value given as a limit tells only on which side of the number the result lay.

Take `CNC(C)(C)C(=O)O` [MeAIB, α-methylaminoisobutyric acid, reference compound]: in [1], the “relative affinity for PMA-induced K+-activity-stimulated Gln/MeAIB transport activity” value was approximately 35 µM. Also, in the data set with SNAT1 or SNAT2, the “affinity of SNAT1 or SNAT2 for MeAIB” value was more than 0.5 mM. Also, the Km in data set [2] was 30 µM.
Regarding `N[C@@H](Cc1c[nH]cn1)C(=O)O` [histidine], the “block of 14C-MeAIB transport activity” value in [2] is listed as approximately 90%.
With `Nc1nc2ccc3ccccc3c2s1` [SKA-45], the “inhibition of spontaneous activity-regulated 14C-MeAIB transport, in words” value (shortened to “inhibition … in words”) in data set [1] is on record as “active”. The established ion-channel activity result in the data set on KCa2 and NaV channels was “KCa2 activators”.
`Nc1nc(-c2cccc3ccccc23)c(Br)s1` [SKA-219, 5-Bromo-4-(1-naphthalenyl)thiazol-2-amine]: in data set [1], the “block of transport activity” value was determined as 90%; the inhibition at 10 µM was 90%; the “inhibition … in words” value is “blocked spontaneous transport activity; also recorded: inhibited spontaneous transport activity”; the “potency to inhibit activity-regulated MeAIB transport relative to a comparator, in words” value is “as potent as riluzole”. Besides, the IC50 in [1] (hippocampal neurons in vitro, 14C-MeAIB 20 μM, read-out: IC50 to inhibit activity-regulated Gln/MeAIB transport) is approximately 2 µM. Also, in data set [1] (Table 1: SKA-41, and active and inactive derivatives), the “Active (annotation beside the compound name: active vs inactive derivatives)” value is “SKA-219 Active”. For the same compound, the “neuroprotection against Glu-induced excitotoxicity in the KA model of TLE” value in [3] was “neuroprotective”. Also, at NaV1.2, the “less potent to block NaV channels than activity-regulated Gln/MeAIB transport” value was more than 10 ×; the “selectivity to inhibit activity-regulated Gln/MeAIB transport over NaV channels” value is > 10 fold and 10 fold and ~15 fold. In addition, the IC50 on NaV1.2 (N1E-115 cells, n=12, read-out: IC50 to inhibit NaV1.2) was 30 µM. The EC50 on NaV1.2 (N1E-115 cells, read-out: EC50 concentration to inhibit NaV1.2) is approximately 30 µM. Moreover, the concentration in solution in [4] (solubility) came to 25 µM (≈ 7.63 µg/mL).
Consider `Nc1nc2ccc(Cc3ccccc3)cc2s1` [SKA-7], for which, in data set [1], the “inhibition … in words” value is given as “active”. For the same compound, the established ion-channel activity result with KCa2 and NaV channels is on record as “NaV blockers”.
As to `C[C@H](N)C(=O)O` [alanine], in [2], the “block of 14C-MeAIB transport activity” value is recorded as approximately 90%.
In the case of `CNCC(=O)O` [sarcosine], the “relative affinity for PMA-induced K+-activity-stimulated Gln/MeAIB transport activity” value in data set [1] was approximately 8 µM. The “block of 14C-MeAIB transport activity” value in data set [2] is approximately 90%.
In the case of `Nc1nc2ccc(SC(F)(F)F)cc2s1` [SKA-19, 2-amino-6-trifluoromethylthio-benzothiazole, reference compound], in data set [1], the inhibition at 10 µM was approximately 90% and the “inhibition … in words” value is listed as “active”. Further, the established ion-channel activity result in the data set on KCa2 and NaV channels was “mixed NaV blockers and KCa activators”.
As to `O=C(O)[C@@H]1CCCN1` [proline], in data set [2], the “block of 14C-MeAIB transport activity” value is approximately 90%.
As for `Nc1nc2ccc(OC(F)(F)F)cc2s1` [riluzole], the IC50 is more than 30 µM at protein Kinase C; more than 40 µM in data set [5]; more than 30 µM in data set [6]; 1 to 500 µM and 1 to 50 µM in the data set on NaV channels. In addition, the established ion-channel activity entry with KCa2 and NaV channels is “mixed NaV blockers and KCa activators”. In data set [6], the “concentration inhibiting delayed-rectifier K+ channels and activating two-pore K+ channels” value is 30 to 100 µM. The EC50 in [7] is 10 to 200 µM and 10 to 20 µM and > 20 µM.
With `NCC(=O)O` [glycine], in data set [2], the “block of 14C-MeAIB transport activity” value was approximately 90%.
As to `NC(=O)CC[C@H](N)C(=O)O` [Gln, glutamine], the “relative affinity for PMA-induced K+-activity-stimulated Gln/MeAIB transport activity” value in data set [1] was approximately 97 µM. In data set [2], the “block of 14C-MeAIB transport activity” value is approximately 90% and the Km was 30 µM.
In the case of `Nc1nc2ccc(OC(F)(F)Cl)cc2s1` [SKA-11, reference compound], the “inhibition … in words” value in data set [1] is “active”. For the same compound, the established ion-channel activity entry in the data set on KCa2 and NaV channels was “mixed NaV blockers and KCa activators”.
On to `Nc1nc(-c2cccc3ccccc23)c(Cl)s1` [SKA-378, 5-Chloro-4-(naphthalen-1-yl)thiazol-2-amine], for which, in data set [1], the “potency to inhibit activity-regulated MeAIB transport relative to a comparator, in words” value is “as active as SKA-219 and SKA-220, respectively; also recorded: most potent”. In addition, the “neuronal degeneration by fluoro-jade B staining in hippocampus” value in [3] (30 mg/kg 30 min before and 30 min after first KA (5 mg/kg/hr x 2 hr i.p.), 3 days after KA) is “prevents fluoro-jade B staining in all regions of the hippocampus; also recorded: Neurodegeneration is not observed”. Moreover, the “neuroprotection when given after onset of SE” value in data set [3] (30 mg/kg 1 hr after onset of stage IV seizures, at 4 hr post SE, then once daily for 3 days) is “neuroprotective”. Moreover, the “NeuN staining: disorganization and neuron loss in CA3 and hilus” value in data set [3] (30 mg/kg pretreatment, 3 days after KA) was “prevents the disorganization and cell loss”. Further, in data set [3], the “neuroprotection against Glu-induced excitotoxicity in the KA model of TLE” value was “neuroprotective”.
In the case of `Nc1nc(-c2cccc3ccccc23)c(Br)s1` [drawing 65], in data set [1], the “fold difference 4-AP IC50 over Spont IC50” value worked out at 2.8 x. The results for the IC50 (in data set [1] (setting [8]); in data set [1] (setting [9]); on NaV1.2 (read-out: Selectivity IC50 Nav1.2)) were 5.1 µM, 1.8 µM and 30 µM, respectively. The “Plasma Protein” value in the data set with plasma protein is listed as more than 98%.
For the compound `Nc1nc(-c2ccc3ccccc3c2)c(Br)s1` [drawing 66], the “fold difference 4-AP IC50 over Spont IC50” value in [1] is given as 1.5 x. For the same compound, the values for the IC50 in [1] (setting [8]) and in data set [1] (setting [9]) were 6.8 µM and 4.4 µM, respectively. Also, the “Plasma Protein” value with plasma protein is listed as more than 98%.

One may read the solubility as how much of the substance goes into solution per volume.
